Laboratory results taken from PMC5215601, “Functional Characterization of the N-Terminal C2 Domain from Arabidopsis thaliana Phospholipase Dα and Dβ” (BioMed Research International, 2016).

Columns and labels:
[1] = target: T1, C2β domain of AtPLDβ (mC2β) (Arabidopsis thaliana, UniProt P93733, F299V); experiment: protein to dansyl-PE liposome FRET; assay type: binding; conditions: 20 μM liposomes with 5% dansyl-PE, 1 μM domain, 50 mM HEPES pH 8, 30 °C; 0, 50 or 200 μM Ca2+
T1 construct: gene PLDBETA1; C2 domain cut to match mature-like C2α; forward primer encodes MVGRLPG (second codon F changed to V); C-terminal 6xHis kept
T1 sequence (P93733 298-418 F299V): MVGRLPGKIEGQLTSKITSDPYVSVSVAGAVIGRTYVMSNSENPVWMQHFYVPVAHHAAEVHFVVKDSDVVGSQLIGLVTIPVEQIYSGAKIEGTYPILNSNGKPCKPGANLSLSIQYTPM

[2] = target: T2, C2α domain of AtPLDα (mC2α) (Arabidopsis thaliana, UniProt Q38882); experiment: protein to dansyl-PE liposome FRET; lipid dot-blot; assay type: binding; conditions: 20 μM liposomes with 5% dansyl-PE, 1 μM domain, 50 mM HEPES pH 8, 30 °C; 0, 50 or 200 μM Ca2+
T2 construct: gene PLDALPHA1; mature-like C2 domain lacking the N-terminal residues; forward primer encodes (M)ANVEET, extra Met added; last encoded residues before tag ...LQYFHVE by reverse primer; C-terminal 6xHis kept
T2 sequence (Q38882 35-152): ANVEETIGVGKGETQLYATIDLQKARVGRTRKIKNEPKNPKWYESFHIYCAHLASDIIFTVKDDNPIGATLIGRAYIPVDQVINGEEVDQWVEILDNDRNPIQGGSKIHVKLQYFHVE

[3] = target: T1, C2β domain of AtPLDβ (mC2β); experiment: protein to dansyl-PE liposome FRET; lipid dot-blot; assay type: binding; conditions: 20 μM liposomes with 5% dansyl-PE, 1 μM domain, 50 mM HEPES pH 8, 30 °C; 0, 50 or 200 μM Ca2+
AtPLDα-WT = target: T3, AtPLDα-WT (Arabidopsis thaliana, UniProt Q38882); experiment: choline oxidase / peroxidase coupled colorimetric assay, […] nm; assay type: biochemical; conditions: crude P. pastoris extract; 266 μM POPC in SDS / Triton X-100 mixed micelles, 20 mM CaCl2, 50 mM Tris-HCl pH 8.0
T3 construct: gene PLDALPHA1; full-length cDNA, untagged, Pichia pastoris X-33; possibly N-glycosylated
T3 sequence (Q38882 36-810): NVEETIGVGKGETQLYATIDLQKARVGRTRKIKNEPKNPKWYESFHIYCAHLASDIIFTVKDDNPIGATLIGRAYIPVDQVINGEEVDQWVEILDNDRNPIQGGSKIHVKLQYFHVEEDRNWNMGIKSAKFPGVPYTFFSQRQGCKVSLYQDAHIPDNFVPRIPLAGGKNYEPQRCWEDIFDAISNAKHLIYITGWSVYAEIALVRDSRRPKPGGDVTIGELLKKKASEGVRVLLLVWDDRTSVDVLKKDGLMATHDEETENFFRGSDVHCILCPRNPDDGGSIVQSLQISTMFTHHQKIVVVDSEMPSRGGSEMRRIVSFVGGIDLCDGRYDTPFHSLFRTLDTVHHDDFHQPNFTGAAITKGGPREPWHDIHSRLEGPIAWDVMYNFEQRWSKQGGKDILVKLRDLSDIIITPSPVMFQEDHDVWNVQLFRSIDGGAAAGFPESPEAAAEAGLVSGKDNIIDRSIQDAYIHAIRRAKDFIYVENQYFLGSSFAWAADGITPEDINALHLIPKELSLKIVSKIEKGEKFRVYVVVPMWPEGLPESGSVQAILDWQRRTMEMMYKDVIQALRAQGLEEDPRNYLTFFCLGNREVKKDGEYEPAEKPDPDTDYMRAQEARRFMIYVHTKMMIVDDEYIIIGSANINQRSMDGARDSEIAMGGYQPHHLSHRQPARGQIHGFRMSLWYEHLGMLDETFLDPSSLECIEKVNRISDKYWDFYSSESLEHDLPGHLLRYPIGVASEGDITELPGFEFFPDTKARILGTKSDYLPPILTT

Structure (SMILES) | relative FRET [1] | relative FRET [2] | relative FRET [3] | PLD activity (AtPLDα-WT)
CCCCCCCC/C=C\CCCCCCCC(=O)O[C@H](COC(=O)CCCCCCCCCCCCCCC)COP(=O)(O)OCC(O)CO (mixture of isomers) [PG, 1-Palmitoyl-2-oleoyl-sn-glycero-3-phospho-(1′-rac-glycerol)] | both C2 domains showed a strong binding to PG vesicles | both C2 domains showed a strong binding to PG vesicles |  | 
CCCCCCCC/C=C\CCCCCCCC(=O)O[C@H](COC(=O)CCCCCCCCCCCCCCC)COP(=O)(O)O [PA, 1-palmitoyl-2-oleoyl-sn-glycero-3-phosphate] |  | both C2 domains were found to bind anionic phospholipids (PA and PS) | both C2 domains were found to bind anionic phospholipids (PA and PS) | 
CCCCCCCC/C=C\CCCCCCCC(=O)O[C@H](COC(=O)CCCCCCCCCCCCCCC)COP(=O)([O-])OCC[N+](C)(C)C [PC, 1-Palmitoyl-2-oleoyl-sn-glycero-3-phosphocholine] |  |  |  | crude extracts of P. pastoris transformed with the AtPLDα-WT exhibited a higher PLD activity
